# Test results taken from patent publication US20240285680A1, “METHOD OF TREATING ALZHEIMER'S DISEASE” (Vector Vitale IP LLC, priority 2021, published 2024).
# Values joined by “and” are separate entries in the source; they are usually repeats but may differ in a detail not shown here. Equal entries are not always repeated.
# Columns and labels:
# [1] = Body weight changes in rat models of Aβ1-40-induced AD; type: in vivo; conditions: Aβ1-40 AD rats, treated group; baseline before the operation
# Text: Male Wistar rats (300-500 g) were used. The animals were maintained under standard conditions in the vivarium of the ESC “Institute of Biology and Medicine” of Taras Shevchenko National University of Kyiv. They were given ad libitum access to food and water.
# Alzheimer's Disease was induced in old male rats (14 months old) by giving them intrahippocampal injections of aggregated Amyloid Beta (Aβ 1-40) Peptide (human) (Cayman Chemical Company) and Amyloid Beta (Aβ 25-35) Peptide (human) (Tocris Bioscience, Brostol). Aβ1-40 and Aβ 25-35 were dissolved in bidistilled water to the concentration of 15 μmol/L and incubated at 37° C. for 24 hours for aggregation. Aβ conglomerates were broken up by ultrasound and sterilized immediately prior to injection.
# Rats were anesthetized using a mixture of ketamine (75 mg/kg, diluted in sterile water for injection, Sigma, USA) and 2% xylazine (100 μl/rat, Alfasan International B.V., Netherlands) administered intraperitoneally in a total volume of 1 ml. A rat was placed in a stereotaxic apparatus (SEZH-4) modified for rats. The animal was then scalped from the point of intersection of the sagittal suture with bregma (zero point): 2 mm distally, 2 mm laterally and 3.5 mm in depth and a trephine opening was made with an injection needle, directly into the hippocampus. […]
# [2] = system: tyrosine hydroxylase (TH); experiment: Immunohistochemical identification of tyrosine hydroxylase in hippocampus, Aβ1-40-induced AD rats; type: in vivo, rat; conditions: Aβ1-40 AD rats; TH-positive hippocampal cells; individual animals 661 E, F, G; listed as Zn
# Experimental: (§1) Degeneration of the hippocampal neurons was assessed using immunohistochemical analysis for the expression level of tyrosine hydroxylase (TH). Immunohistochemical staining was performed using primary anti-TH antibodies at a 1:200 dilution (Millipore, AB152). Endogenous peroxidase activity was blocked with a blocking reagent (Dako, EnVision Flex, DM821). Nonspecific antibody binding was blocked using 4% dry milk dissolved in Tris-buffered saline (TBS) containing 0.2% Triton X-100.
# (§2) The primary antibody was diluted in TBS containing 0.2% Triton X-100 and applied to tissue sections. The sections were then incubated overnight (+4° C.). Secondary antibodies (anti-rabbit biotinylated antibodies, 1:200) were incubated for 60 minutes. The immunoreaction was developed using diaminobenzidine (Dako, EnVision) applied for 5 minutes. The results of immunohistochemical staining were evaluated at the light-optical level using a Zeiss Primo Star microscope. The intensity of TH-positive staining was evaluated using a semiquantitative scoring system as described in the Quantitative Scoring Method ([http://www.ihcworld.com/ihc_scoring.htm]) taking into account the number of positive (stained) cells and the intensity of staining (Table 1). The results were presented as a quick score (Q) calculated by the following formula: Q=P×I, where P is the percentage of positive cells and I is the staining intensity.
# [3] = system: rat models of Aβ1-40-induced Alzheimer's disease; experiment: Barnes maze memory and cognitive flexibility tests, Aβ1-40-induced AD rats; type: in vivo; conditions: Aβ1-40 model; for Time spent near the entrance to the “escape box”, after surgery / Time spent near the entrance to the “escape box”, % of changes / Time spent near the entrance to the “escape box”, before surgery: cognitive flexibility; for Time spent near the entrance to the “escape box”, after surgery / Time spent to find the “escape box”, after surgery: after surgery and treatment; for Time spent near the entrance to the “escape box”, after surgery / Time spent near the entrance to the “escape box”, before surgery / Time spent to find the “escape box”, after surgery / Time spent to find the “escape box”, before surgery: M ± SD; for Time spent near the entrance to the “escape box”, % of changes / Time spent to find the “escape box”, % of changes: after vs before surgery; for Time spent near the entrance to the “escape box”, before surgery / Time spent to find the “escape box”, before surgery: baseline before surgery
# Experimental: Kinga Gawel et al., Assessment of spatial learning and memory in the Barnes maze task in rodents-methodological consideration, Naunyn Schmiedebergs Arch Pharmacol. 2019; 392(1): 1-18. doi: 10.1007/s00210-018-1589-y.
# The other holes remained open.
# The rat was allowed to move freely around the table for 2-3 minutes.
# Fifteen minutes after the habituation session, on the 2nd, 3rd and 4th days of the experiment, the task training was repeated 4 times every 15 minutes (min) (3 min on the table surface+1 min in the “escape box” with the light off).
# The table surface was disinfected after each trial.
# 18 days after the operation, the animals had another 4-day training session (probe phase) with a changed location of the “escape box”.
# The following time periods were measured in seconds: 1) the time the animal spent to find the entrance to the “escape box” (assessment of spatial learning and spatial memory associated with the hippocampal function); 2) the time the animal spent near the entrance (assessment of cognitive flexibility associated with the function of the frontal cortex of the brain)—the less time the animal spends near the closed entrance, the quicker it understands that it is necessary to look for escape elsewhere.
# [4] = system: tyrosine hydroxylase (TH); experiment: Immunohistochemical identification of tyrosine hydroxylase in hippocampus, Aβ25-35-induced AD rats; type: in vivo, rat; conditions: Aβ25-35 AD rats
# Experimental: as §1, §2
# CD86 = CD86 expression in circulating phagocytes, Aβ25-35 model; type: in vivo, rat; conditions: Aβ25-35 AD rats
# Experimental: The phenotypic profile of phagocytes of various localization was characterized by the expression of markers of functional maturity and metabolic polarization (CD206 and CD86), which was determined by flow cytometry and the use of monoclonal antibodies of appropriate specificity marked with fluorescent dyes (Abcam, Becton Dickinson).
# [5] = system: rat models of Aβ25-35-induced Alzheimer's disease; experiment: Barnes maze memory and cognitive flexibility tests, Aβ25-35-induced AD rats; conditions: for Time spent near the entrance to the “escape box”, after surgery / Time spent near the entrance to the “escape box”, % of changes / Time spent near the entrance to the “escape box”, before surgery / Time spent to find the “escape box”, after surgery / Time spent to find the “escape box”, % of changes / Time spent to find the “escape box”, before surgery: Aβ25-35 model; for Time spent near the entrance to the “escape box”, after surgery / Time spent near the entrance to the “escape box”, % of changes / Time spent near the entrance to the “escape box”, before surgery: cognitive flexibility; for Time spent near the entrance to the “escape box”, after surgery / Time spent to find the “escape box”, after surgery: after surgery and treatment; for Time spent near the entrance to the “escape box”, after surgery / Time spent near the entrance to the “escape box”, before surgery / Time spent to find the “escape box”, after surgery / Time spent to find the “escape box”, before surgery: M ± SD; for Time spent near the entrance to the “escape box”, % of changes / Time spent to find the “escape box”, % of changes: after vs before surgery; for Time spent near the entrance to the “escape box”, before surgery / Time spent to find the “escape box”, before surgery: baseline before surgery
# Text: An animal learns to remember the location of the target zone (“escape box”) using peripheral visual cues in the testing area as reference points.
# Barnes maze used consisted of a circular table with 16 circular holes around its circumference. Peripheral visual cues, such as black marks (a triangle on one wall and two parallel strips on the opposite wall), were placed for better orientation of the animal. Under one of the holes an “escape box” containing standard filler for animals was fixed. Each animal was assigned its number of the hole to which the “escape box” was fixed. The other holes remained open. Before performing the probe phase (after the operation), the number of the hole was changed.
# On the 1st day of the experiment, during the first training of rats, a habituation session was performed, which was not repeated during the probe phase. A rat was placed in the center of the circular table and kept under a non-transparent hood for 10 seconds. The light above the table was then turned on and the hood lifted. The rat was allowed to move freely around the table for 2-3 minutes.
# Fifteen minutes after the habituation session, on the 2nd, 3rd and 4th days of the experiment, the task training was repeated 4 times every 15 minutes (min) (3 min on the table surface+1 min in the “escape box” with the light off). The time during which the animal managed to reach the “escape box” was recorded at each trial.
# Short-term memory of the animals was tested on the 5th day, and long-term memory was tested on the 9th day (5th day after the last training). All the holes of the maze were closed, and the rat was allowed to freely explore the open arena for 90 seconds to find “its” corresponding hole on the table top (under which the “escape box” was previously located) based on previously acquired skills. The amount of time the animal spent searching for the correct hole, and the time it spent near the hole was recorded. The table surface was disinfected after each trial.
# 18 days after the operation, the animals had another 4-day training session (probe phase) with a changed location of the “escape box”. As in the case before the operation, short-term memory was tested on the 5th day, and long-term memory was tested on the 9th day (5th day after the last training session).
# [6] = long-term memory, 5 days following training
# [7] = short-term memory, 24 hours following training
substance,measurement,setting,value
^64Zn-aspartate,body weight before the operation,[1],432.1 ± 29.7 g
same,Q = P × I,[2],4 and 2 and 6
same,"Time spent near the entrance to the “escape box”, after surgery",[3]; 24 hours following training,22.57 ± 7.77 s
same,"Time spent near the entrance to the “escape box”, % of changes",[3]; 24 hours following training,−31.6%
same,"Time spent near the entrance to the “escape box”, before surgery",[3]; 24 hours following training,33 ± 7.39 s
same,"Time spent near the entrance to the “escape box”, after surgery",[3]; 5 days following training,29 ± 6.14 s
same,"Time spent near the entrance to the “escape box”, % of changes",[3]; 5 days following training,23.03%
same,"Time spent near the entrance to the “escape box”, before surgery",[3]; 5 days following training,23.57 ± 6.61 s
same,"Time spent to find the “escape box”, after surgery",[3]; [6],5 ± 1.54 s
same,"Time spent to find the “escape box”, % of changes",[3]; [6],−70.59%
same,"Time spent to find the “escape box”, before surgery",[3]; [6],17 ± 6.74 s
same,"Time spent to find the “escape box”, after surgery",[3]; [7],4.14 ± 0.74 s
same,"Time spent to find the “escape box”, % of changes",[3]; [7],−42.04%
same,"Time spent to find the “escape box”, before surgery",[3]; [7],7.14 ± 1.49 s
same,Q = P × I,"[4]; TH-positive hippocampal cells, individual animals 663 A, B, listed as Zn",6 and 4
same,staining intensity of TH-positive cells,[4]; hippocampus,no effect
same,"tyrosine hydroxylase expression, Q value (group mean)",[4]; hippocampus,5.0±1.4
same,expression of CD86 by circulating phagocytes,CD86,elevated
same,fraction of CD86+ cells among circulating phagocytes,CD86,increase
same,tendency towards impairment of long-term memory,[5]; Aβ25-35 AD rats,not improved
same,"Time spent near the entrance to the “escape box”, after surgery",[5]; 24 hours following training,30.67 ± 7.32 s
same,"Time spent near the entrance to the “escape box”, % of changes",[5]; 24 hours following training,12.2%
same,"Time spent near the entrance to the “escape box”, before surgery",[5]; 24 hours following training,27.33 ± 4.06 s
same,"Time spent near the entrance to the “escape box”, after surgery",[5]; 5 days following training,18.17 ± 5.38 s
same,"Time spent near the entrance to the “escape box”, % of changes",[5]; 5 days following training,−40.76%
same,"Time spent near the entrance to the “escape box”, before surgery",[5]; 5 days following training,30.67 ± 4.32 s
same,"Time spent to find the “escape box”, after surgery",[5]; [6],21.83 ± 12.53 s
same,"Time spent to find the “escape box”, % of changes",[5]; [6],48.86%
same,"Time spent to find the “escape box”, before surgery",[5]; [6],14.67 ± 3.53 s
same,"Time spent to find the “escape box”, after surgery",[5]; [7],8.33 ± 5.76 s
same,"Time spent to find the “escape box”, % of changes",[5]; [7],−37.5%
same,"Time spent to find the “escape box”, before surgery",[5]; [7],13.33 ± 7.8 s
